Literature values in US20190167612A1, “PHARMACEUTICAL FORMULATION FOR ORAL ADMINISTRATION WITH CONTROLLED DISSOLUTION RATE COMPRISING SUSTAINED-RELEASE PELLETS CONTAINING TAMSULOSIN HYDROCHLORIDE” (HANMl PHARM. CO., LTD., priority 2016, published 2019).
Structures can show the parent of a compound that is named as a salt.

Key:
[1] = in vivo

Bioavailability [1]: ≥ 90%
Solubility in water: slight solubility in water
SMILES: CCOc1ccccc1OCCN[C@H](C)Cc1ccc(OC)c(S(N)(=O)=O)c1 [Tamsulosin hydrochloride, (R)-5-[2-[[2-(2-ethoxyphenoxy)ethyl]-amino]propyl]-2-methoxy-benzenesulfonamide]
